Reference: PubChem BioAssay (NCI)
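Abbreviation: GI50, concentration required for 50% inhibition of growth. TGI is the concentration that stops growth completely.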

Columns and labels:
Assay in all cases: inhibition of tumour cell growth, NCI panel, 384-well format; in the data active = GI50 below about 0.43 µM; inactive = the rest
HCT-15 colon = test system: HCT-15 colon
HOP-92 NSCLC = test system: HOP-92 NSCLC
CAKI-1 renal = test system: CAKI-1 renal
A549 NSCLC = test system: A549 NSCLC
SK-MEL-5 melanoma = test system: SK-MEL-5 melanoma
PC-3 prostate = test system: PC-3 prostate
ACHN renal = test system: ACHN renal
LOX IMVI melanoma = test system: LOX IMVI melanoma
SNB-19 CNS = test system: SNB-19 CNS
NCI-H522 lung = test system: NCI-H522 lung
OVCAR-5 ovarian = test system: OVCAR-5 ovarian
MALME-3M melanoma = test system: MALME-3M melanoma
DU-145 prostate = test system: DU-145 prostate
OVCAR-3 ovarian = test system: OVCAR-3 ovarian
COLO 205 colon = test system: COLO 205 colon
MDA-MB-231 breast = test system: MDA-MB-231 breast
U251 glioblastoma = test system: U251 glioblastoma
SK-MEL-28 melanoma = test system: SK-MEL-28 melanoma
SNB-75 CNS = test system: SNB-75 CNS
MDA-MB-435 melanoma = test system: MDA-MB-435 melanoma
OVCAR-4 ovarian = test system: OVCAR-4 ovarian
IGROV1 ovarian = test system: IGROV1 ovarian
UACC-257 melanoma = test system: UACC-257 melanoma
SF-539 CNS = test system: SF-539 CNS
SK-OV-3 ovarian = test system: SK-OV-3 ovarian
KM12 colon = test system: KM12 colon
SN12C renal = test system: SN12C renal
M14 melanoma = test system: M14 melanoma
HL-60(TB) leukemia = test system: HL-60(TB) leukemia
RPMI-8226 leukemia = test system: RPMI-8226 leukemia
NCI-H23 lung = test system: NCI-H23 lung
MCF7 breast = test system: MCF7 breast
SR leukemia = test system: SR leukemia
NCI/ADR-RES ovarian = test system: NCI/ADR-RES ovarian
HCC-2998 colon = test system: HCC-2998 colon
SF-268 CNS = test system: SF-268 CNS
BT-549 breast = test system: BT-549 breast
UACC-62 melanoma = test system: UACC-62 melanoma
SF-295 CNS = test system: SF-295 CNS
TK-10 renal = test system: TK-10 renal
HS 578T breast = test system: HS 578T breast
EKVX NSCLC = test system: EKVX NSCLC
MOLT-4 leukemia = test system: MOLT-4 leukemia
MDA-MB-468 breast = test system: MDA-MB-468 breast
NCI-H322M lung = test system: NCI-H322M lung
A498 renal = test system: A498 renal
OVCAR-8 ovarian = test system: OVCAR-8 ovarian
HOP-62 NSCLC = test system: HOP-62 NSCLC
NCI-H226 lung = test system: NCI-H226 lung
HCT-116 colon = test system: HCT-116 colon
NCI-H460 NSCLC = test system: NCI-H460 NSCLC
RXF 393 renal = test system: RXF 393 renal
T-47D breast = test system: T-47D breast
HT29 colon = test system: HT29 colon

Cn1ncc(Cl)c1-c1cc(C(=O)N[C@H](CN)Cc2ccc(F)c(F)c2)oc1Cl
2.91 µM: TGI (M14 melanoma)
0.347 µM: TGI (MOLT-4 leukemia)
11.1 µM: TGI (SN12C renal) | TGI (NCI-H23 lung)
2.3 µM: TGI (SF-295 CNS)
14.1 µM: TGI (OVCAR-3 ovarian)
2.55 µM: TGI (HL-60(TB) leukemia)
16.9 µM: TGI (SF-268 CNS)
2.99 µM: TGI (RPMI-8226 leukemia)
14.9 µM: TGI (ACHN renal) | TGI (SNB-19 CNS)
11 µM: TGI (EKVX NSCLC)
2.29 µM: TGI (SNB-75 CNS)
19.1 µM: TGI (OVCAR-4 ovarian)
2.72 µM: TGI (HS 578T breast)
1.86 µM: TGI (SR leukemia)
10.5 µM: TGI (HCT-116 colon)
16.4 µM: TGI (DU-145 prostate)
16.3 µM: TGI (NCI/ADR-RES ovarian)
13.4 µM: TGI (HCT-15 colon)
10.9 µM: TGI (HOP-62 NSCLC)
1.79 µM: TGI (MDA-MB-468 breast)
1.92 µM: TGI (SF-539 CNS)
12.1 µM: TGI (CAKI-1 renal)
2.31 µM: TGI (UACC-62 melanoma)
2.24 µM: TGI (MALME-3M melanoma) | TGI (UACC-257 melanoma)
7.49 µM: TGI (HT29 colon)
2.45 µM: TGI (SK-MEL-28 melanoma)
8.16 µM: TGI (NCI-H226 lung)
0.782 µM: TGI (A498 renal)
2.82 µM: TGI (KM12 colon)
3.95 µM: TGI (LOX IMVI melanoma)
6.67 µM: TGI (MDA-MB-435 melanoma)
0.178 µM: TGI (IGROV1 ovarian)
13.9 µM: TGI (A549 NSCLC) | TGI (NCI-H322M lung)
1.8 µM: TGI (MCF7 breast)
11.2 µM: TGI (HOP-92 NSCLC)
8.2 µM: TGI (SK-OV-3 ovarian)
19.9 µM: TGI (MDA-MB-231 breast)
2.16 µM: TGI (PC-3 prostate) | TGI (BT-549 breast)
4.56 µM: TGI (OVCAR-5 ovarian)
3.97 µM: TGI (U251 glioblastoma)
7.94 µM: TGI (NCI-H522 lung)
inactive: GI50 (HCT-15 colon) 0.702 µM | GI50 (HOP-92 NSCLC) 2.36 µM | GI50 (CAKI-1 renal) 2.23 µM | GI50 (A549 NSCLC) 2.66 µM | GI50 (SK-MEL-5 melanoma) 1.01 µM | GI50 (ACHN renal) 2.77 µM | GI50 (LOX IMVI melanoma) 1.94 µM | GI50 (SNB-19 CNS) 1.48 µM | GI50 (NCI-H522 lung) 2.24 µM | GI50 (OVCAR-5 ovarian) 1.57 µM | GI50 (MALME-3M melanoma) 1.05 µM | GI50 (DU-145 prostate) 3.72 µM | GI50 (OVCAR-3 ovarian) 2.17 µM | GI50 (COLO 205 colon) 0.833 µM | GI50 (MDA-MB-231 breast) 7.04 µM | GI50 (U251 glioblastoma) 1.14 µM | GI50 (SK-MEL-28 melanoma) 1.14 µM | GI50 (MDA-MB-435 melanoma) 1.82 µM | GI50 (OVCAR-4 ovarian) 6.6 µM | GI50 (UACC-257 melanoma) 1.05 µM | GI50 (SK-OV-3 ovarian) 0.431 µM | GI50 (SN12C renal) 1.96 µM | GI50 (M14 melanoma) 1.49 µM | GI50 (HL-60(TB) leukemia) 1.26 µM | GI50 (RPMI-8226 leukemia) 1.54 µM | GI50 (NCI-H23 lung) 2.7 µM | GI50 (SR leukemia) 0.517 µM | GI50 (NCI/ADR-RES ovarian) 4.1 µM | GI50 (HCC-2998 colon) 0.772 µM | GI50 (SF-268 CNS) 4.7 µM | GI50 (BT-549 breast) 0.586 µM | GI50 (UACC-62 melanoma) 1.06 µM | GI50 (SF-295 CNS) 0.527 µM | GI50 (TK-10 renal) 0.569 µM | GI50 (HS 578T breast) 0.711 µM | GI50 (EKVX NSCLC) 2.07 µM | GI50 (NCI-H322M lung) 2.34 µM | GI50 (OVCAR-8 ovarian) 3.31 µM | GI50 (HOP-62 NSCLC) 3.01 µM | GI50 (NCI-H226 lung) 2.54 µM | GI50 (HCT-116 colon) 2.33 µM | GI50 (HT29 colon) 1.03 µM
2.21 µM: TGI (HCC-2998 colon)
15.6 µM: TGI (OVCAR-8 ovarian)
active: GI50 (PC-3 prostate) 0.128 µM | GI50 (SNB-75 CNS) 0.211 µM | GI50 (IGROV1 ovarian) 0.0231 µM | GI50 (SF-539 CNS) 0.0794 µM | GI50 (KM12 colon) 0.364 µM | GI50 (MCF7 breast) 0.13 µM | GI50 (MOLT-4 leukemia) 0.06 µM | GI50 (MDA-MB-468 breast) 0.0719 µM | GI50 (A498 renal) 0.0257 µM | GI50 (NCI-H460 NSCLC) 0.0876 µM | GI50 (RXF 393 renal) 0.386 µM | GI50 (T-47D breast) 0.137 µM
2.18 µM: TGI (SK-MEL-5 melanoma) | TGI (NCI-H460 NSCLC) | TGI (RXF 393 renal)
2.9 µM: TGI (TK-10 renal)
5.55 µM: TGI (T-47D breast)
2.71 µM: TGI (COLO 205 colon)

COc1ccc2c(OCc3nnc4ccc(-c5ccccc5)nn34)ccnc2c1
> 100 µM: TGI (HCT-15 colon) | TGI (HOP-92 NSCLC) | TGI (CAKI-1 renal) | TGI (A549 NSCLC) | TGI (SK-MEL-5 melanoma) | TGI (PC-3 prostate) | TGI (ACHN renal) | TGI (LOX IMVI melanoma) | TGI (SNB-19 CNS) | TGI (NCI-H522 lung) | TGI (OVCAR-5 ovarian) | TGI (MALME-3M melanoma) | TGI (DU-145 prostate) | TGI (COLO 205 colon) | TGI (MDA-MB-231 breast) | TGI (U251 glioblastoma) | TGI (SK-MEL-28 melanoma) | TGI (SNB-75 CNS) | TGI (MDA-MB-435 melanoma) | TGI (OVCAR-4 ovarian) | TGI (IGROV1 ovarian) | TGI (UACC-257 melanoma) | TGI (SF-539 CNS) | TGI (SK-OV-3 ovarian) | TGI (KM12 colon) | TGI (SN12C renal) | TGI (M14 melanoma) | TGI (HL-60(TB) leukemia) | TGI (RPMI-8226 leukemia) | TGI (NCI-H23 lung) | TGI (MCF7 breast) | TGI (SR leukemia) | TGI (NCI/ADR-RES ovarian) | TGI (HCC-2998 colon) | TGI (SF-268 CNS) | TGI (BT-549 breast) | TGI (UACC-62 melanoma) | TGI (SF-295 CNS) | TGI (TK-10 renal) | TGI (HS 578T breast) | TGI (EKVX NSCLC) | TGI (MOLT-4 leukemia) | TGI (MDA-MB-468 breast) | TGI (NCI-H322M lung) | TGI (A498 renal) | TGI (OVCAR-8 ovarian) | TGI (HOP-62 NSCLC) | TGI (NCI-H226 lung) | TGI (HCT-116 colon) | TGI (NCI-H460 NSCLC) | TGI (RXF 393 renal) | TGI (T-47D breast) | TGI (HT29 colon)
94.6 µM: TGI (OVCAR-3 ovarian)
inactive: GI50 (HCT-15 colon) > 100 µM | GI50 (HOP-92 NSCLC) > 100 µM | GI50 (CAKI-1 renal) > 100 µM | GI50 (A549 NSCLC) > 100 µM | GI50 (SK-MEL-5 melanoma) > 100 µM | GI50 (PC-3 prostate) > 100 µM | GI50 (ACHN renal) 42.2 µM | GI50 (LOX IMVI melanoma) > 100 µM | GI50 (SNB-19 CNS) 50.1 µM | GI50 (NCI-H522 lung) 44.6 µM | GI50 (OVCAR-5 ovarian) > 100 µM | GI50 (MALME-3M melanoma) > 100 µM | GI50 (DU-145 prostate) > 100 µM | GI50 (OVCAR-3 ovarian) 29.8 µM | GI50 (COLO 205 colon) > 100 µM | GI50 (MDA-MB-231 breast) > 100 µM | GI50 (U251 glioblastoma) > 100 µM | GI50 (SK-MEL-28 melanoma) > 100 µM | GI50 (SNB-75 CNS) > 100 µM | GI50 (MDA-MB-435 melanoma) > 100 µM | GI50 (OVCAR-4 ovarian) 28.9 µM | GI50 (IGROV1 ovarian) > 100 µM | GI50 (UACC-257 melanoma) > 100 µM | GI50 (SF-539 CNS) > 100 µM | GI50 (SK-OV-3 ovarian) > 100 µM | GI50 (KM12 colon) > 100 µM | GI50 (SN12C renal) 63 µM | GI50 (M14 melanoma) > 100 µM | GI50 (HL-60(TB) leukemia) > 100 µM | GI50 (RPMI-8226 leukemia) > 100 µM | GI50 (NCI-H23 lung) > 100 µM | GI50 (MCF7 breast) > 100 µM | GI50 (SR leukemia) > 100 µM | GI50 (NCI/ADR-RES ovarian) > 100 µM | GI50 (HCC-2998 colon) > 100 µM | GI50 (SF-268 CNS) > 100 µM | GI50 (BT-549 breast) > 100 µM | GI50 (UACC-62 melanoma) > 100 µM | GI50 (SF-295 CNS) > 100 µM | GI50 (TK-10 renal) 48.7 µM | GI50 (HS 578T breast) > 100 µM | GI50 (EKVX NSCLC) > 100 µM | GI50 (MOLT-4 leukemia) > 100 µM | GI50 (MDA-MB-468 breast) > 100 µM | GI50 (NCI-H322M lung) > 100 µM | GI50 (A498 renal) > 100 µM | GI50 (OVCAR-8 ovarian) > 100 µM | GI50 (HOP-62 NSCLC) 60.5 µM | GI50 (NCI-H226 lung) > 100 µM | GI50 (HCT-116 colon) > 100 µM | GI50 (NCI-H460 NSCLC) 73.8 µM | GI50 (RXF 393 renal) > 100 µM | GI50 (T-47D breast) > 100 µM | GI50 (HT29 colon) > 100 µM
